{
  "source": "patent US20180179499A1",
  "about": "“BIOBASED PRODUCTION OF FUNCTIONALIZED ALPHA-SUBSTITUTED ACRYLATES AND C4-DICARBOXYLATES” (BIOAMBER INC., priority 2015, published 2018)",
  "key": {"[1]": {"tested_on": "potential yeast hosts (I. orientalis, S. cerevisiae)", "assay": "Tolerance of potential yeast hosts: maximum concentration in which growth was detected", "type": "cell-based", "details": "Table E", "procedure": "(§1) Two eukaryotic strains, I. orientalis and S. cerevisiae, were tested at pH 3 and pH 5. Three bacterial strains were tested using their individual optimal conditions. E. coli and C. glutamicum were tested at pH 8 and 30° C., and B. firmus was tested at pH 9 and 37° C. I. orientalis was grown in defined yeast media consisting of 5 g/L ammonium sulfate, 0.5 g/L magnesium sulfate heptahydrate, 3 g/L potassium phosphate monobasic, 10 g/L dextrose, 1 mL/L of 10% glycerol stock, 1 mL/L of 1000× trace. The 1000× trace stock solution contains 4 g/L ZnSO4.7H2O, 2 g/L FeSO4.7H2O, 1 g/L MnSO4.H2O, 0.2 g/L CuSO4.5H2O, and 0.8 mL/L H2SO4. S. cerevisiae was grown in buffered defined dextrose media consisting of 50 g/L dextrose, 5 g/L yeast extract, and 40 mL/L 25× DM salts. The 25× DM salt stock solution contains 125 g/L ammonium sulfate, 12.5 g/L magnesium sulfate heptahydrate, 75 g/L potassium phosphate monobasic, and 787.5 g/L water. The bacterial strains were grown in standard LB media consisting of 10 g/L bacto-tryptone, 5 g/L yeast extract, 10 g/L NaCl, and 20 g/L dextrose with addition of 20 g/L glucose.\n(§2) Time points were taken over a period of at least 8 hours and up to 24 hours to calculate the rate of growth. Specific growth rate was determined by plotting the natural logarithm of cell number against time. Tolerance was determined by growth rate of cells in the presence of the compound as compared to in the absence of the compound.\n(§3) Two eukaryotic strains, I. orientalis and S. cerevisiae, were tested for tolerance to the selected compounds at pH 3 and pH 5. The bacterial strains were grown at their individual optimal conditions, E coli and C. glutamicum at pH 8 and 30° C., and B. firmus and B. cohnii at pH 9 and 37° C. I. orientalis was grown in defined yeast media consisting of 5 g/L ammonium sulfate, 0.5 g/L magnesium sulfate heptahydrate, 3 g/L potassium phosphate monobasic, 10 g/L dextrose, 1 mL/L of 10% glycerol stock, 1 mL/L of 1000× trace. The 1000× trace stock solution contains 4 g/L ZnSO4.7H2O, 2 g/L FeSO4.7H2O, 1 g/L MnSO4.H2O, 0.2 g/L CuSO4.5H2O, and 0.8 mL/L H2SO4. S. cerevisiae was grown in buffered defined dextrose media consisting of 50 g/L dextrose, 5 g/L yeast extract, and 40 mL/L 25×DM salts. The 25×DM salt stock solution contains 125 g/L ammonium sulfate, 12.5 g/L magnesium sulfate heptahydrate, 75 g/L potassium phosphate monobasic, and 787.5 g/L water. The bacterial strains were grown in standard LB media consisting of 10 g/L bacto-tryptone, 5 g/L yeast extract, 10 g/L NaCl, and 20 g/L dextrose with addition of 20 g/L glucose.\nas §2"}, "[2]": {"tested_on": "potential bacterial hosts (E. coli, C. glutamicum, B. firmus, B. cohnii)", "assay": "Tolerance of potential bacterial hosts: highest concentration with growth observed", "type": "cell-based", "details": "Table F, max conc tested 100 g/L", "procedure": "as §1, §2, §3, §2"}, "B. firmus": {"tested_on": "B. firmus", "assay": "Host tolerance: growth rate with compound versus unchallenged cells", "type": "cell-based", "details": "pH 9, 37° C.", "procedure": "(§4) Potential hosts for the described pathways to alpha substituted C4 dicarboxylic acids were identified by determining the tolerance to functionalized alpha substituted dicarboxylic acids as shown in FIG. 2. Specific functionalized alpha substituted C4 dicarboxylic acid compounds were selected to assess tolerance of bacterial and eukaryotic hosts.\nas §1\n(§5) Time points were taken over a period of at least 8 hours and up to 24 hours to calculate the rate of growth. Specific growth rate was determined by plotting the natural logarithm of cell number against time. Tolerance was determined by growth rate of cells in the presence of the compound as compared to in the absence of the compound. The scoring method is indicated in Table D. The results of the tolerance studies are shown in Tables E and F. The second column from the left denotes the maximum concentration of the indicated compound in which growth was detected. […] I. orientalis is also a suitable host for most of the compounds.\n(§6) Potential hosts for the described pathways to alpha substituted acrylic acid were identified by determining the tolerance to functionalized alpha substituted acrylic acid end-products as shown generally in FIGS. 1 and 3 and more specifically in FIGS. 9 and 10. […]\n(§7) Time points were taken over a period of at least 8 hours and up to 24 hours to calculate the rate of growth. Specific growth rate was determined by plotting the natural logarithm of cell number against time. […]"}, "C. glutamicum": {"tested_on": "C. glutamicum", "assay": "Host tolerance: growth rate with compound versus unchallenged cells", "type": "cell-based", "details": "pH 8, 30° C.", "procedure": "as §4, §1, §5, §6, §7"}, "E. coli": {"tested_on": "E. coli", "assay": "Host tolerance: growth rate with compound versus unchallenged cells", "type": "cell-based", "details": "pH 8, 30° C.", "procedure": "Two eukaryotic strains, I. orientalis and S. cerevisiae, were tested at pH 3 and pH 5. Three bacterial strains were tested using their individual optimal conditions. E. coli and C. glutamicum were tested at pH 8 and 30° C., and B. firmus was tested at pH 9 and 37° C. I. orientalis was grown in defined yeast media consisting of 5 g/L ammonium sulfate, 0.5 g/L magnesium sulfate heptahydrate, 3 g/L potassium phosphate monobasic, 10 g/L dextrose, 1 mL/L of 10% glycerol stock, 1 mL/L of 1000× trace. The 1000× trace stock solution contains 4 g/L ZnSO4.7H2O, 2 g/L FeSO4.7H2O, 1 g/L MnSO4.H2O, 0.2 g/L CuSO4.5H2O, and 0.8 mL/L H2SO4. […]\nas §2, with “compound. […]” for “compound.”\nas §2"}, "[3]": {"assay": "Dehydration of HM3HP to HMA at different temperature and pH (NMR)", "type": "physicochemical", "details": "overnight", "procedure": "In the case of the microorganism producing alpha-substituted 3-hydroxymethyl acid, such as in Examples 9 and 21, this compound is dehydrated to alpha-substituted acrylic acid. In one embodiment, alpha-hydroxymethyl 3-hydroxypropionic acid (HM3HP) is dehydrated to alpha-hydroxymethyl acrylic acid (HMA). A known amount of HM3HP was dissolved into buffered solution. […] Samples were incubated at −20° C., 30° C., or 70° C. overnight. NMR analysis was used to measure the amount of HM3HP that was dehydrated to HMA. […] The pH of the solution had more effect on conversion to HMA than did changes in temperature."}, "E coli": {"tested_on": "E coli", "assay": "Host tolerance to hydroxymethyl-3HP, relative OD after 24 hours", "type": "cell-based", "details": "24 hours incubation at 30° C.", "procedure": "(§8) FIG. 33(a) presents comparative tolerance data of potential host organisms to 3-hydroxymethyl 3-hydroxypropionic acid (HM3HP) where Km=K. marxianus, Sc=S. cerevisiae, Ec=E. coli (from Example 17). Within each grouping, the right bar represents Ec, the left bar represents Km, and the middle bar represents Sc.\nas §3\n(§9) In one embodiment, alpha substituted 3-hydroxypropionic acid is produced by the host organism. In a specific embodiment, alpha hydroxymethyl 3-hydroxypropionic acid is produced by the host organism. To evaluate host organisms, the protocol described above was used. The relative OD at the end of 24 hours incubation at 30° C. was compared for Kluyveromyces marxianus, S. cerevisiae, and E coli in the presence of different amounts of hydroxymethyl-3HP (FIG. 33(a))."}, "S. cerevisiae": {"tested_on": "S. cerevisiae", "assay": "Host tolerance to hydroxymethyl-3HP, relative OD after 24 hours", "type": "cell-based", "details": "24 hours incubation at 30° C.", "procedure": "as §8, §3, §9"}, "Kluyveromyces marxianus": {"tested_on": "Kluyveromyces marxianus", "assay": "Host tolerance to hydroxymethyl-3HP, relative OD after 24 hours", "type": "cell-based", "details": "K. marxianus, 24 hours incubation at 30° C.", "procedure": "as §8, §3, §9"}, "[4]": {"assay": "Dehydratase assay: lysate incubated with itatartaric acid, HPLC/NMR", "type": "biochemical", "details": "knockout E coli strains (acnA or acnB deleted), lysate with ITT overnight at 30° C., HPLC", "procedure": "E. coli optimized genes encoding dehydratases are synthesized and cloned into pTrcHisA (Life Technologies (formerly Invitrogen)). Dehydratase candidates are found in Table I. Plasmids containing the optimized synthase genes are transformed into BL21 E. coli cells. Empty plasmid pTrcHisA are also transformed as a negative control. […]. Flasks are incubated at 30° C. at 250 rpm shaking for 2 hours, then protein production is induced with 0.2 mM IPTG and incubated for 4 more hours at 30° C. while shaking. Cells are harvested by centrifugation and pellets are stored at −80° C.\nCells are lysed using mechanical disruption using a BeadBeater (BopSpec products, Bartlesville, Okla.) using the manufacturer's instructions. […] Protein concentrations of the resulting clarified lysates are measured via BioRad total Protein assay using the manufacturer's instructions. […]\nThe reaction mixture contains 100 mM TAPS buffer pH 6.8, 100 mM KCl, 100 mM substrate alpha (hydroxymethyl) maleic acid. […] The reactions in these microplates are monitored at 235 nm. Readings are taken every 9 seconds for 10 minutes and the data is used to calculate activities of each enzyme. Background absorbance is measured by the same reaction with no substrate present are subtracted. […]\nThe lysates were incubated with or without a known amount of synthesized ITT overnight at 30° C., and then the samples were analyzed by HPLC. […]"}},
  "data": [
    {"molecule": "O=C(O)CC1(C(=O)O)CCC(=O)O1", "note": "(centres unmarked) [Homocitrate lactone]", "values": [
      {"measurement": "Max conc (maximum concentration in which growth was detected)", "setting": "[1]", "result": 100, "unit": "g/L"},
      {"measurement": "Highest conc with growth observed", "setting": "[2]", "result": 100, "unit": "g/L"},
      {"measurement": "Tolerance score (percent growth rate as compared to unchallenged cells)", "setting": "B. firmus", "result": "− (10-0%)"},
      {"measurement": "Tolerance score (percent growth rate as compared to unchallenged cells)", "setting": "C. glutamicum", "result": "− (10-0%)"},
      {"measurement": "Tolerance score (percent growth rate as compared to unchallenged cells)", "setting": "E. coli", "result": "+++ (100-90%)"}
    ]},
    {"molecule": "O=C(O)CC[C@@](O)(CC(=O)O)C(=O)O", "note": "[Homocitrate]", "values": [
      {"measurement": "Max conc (maximum concentration in which growth was detected)", "setting": "[1]", "result": 100, "unit": "g/L"},
      {"measurement": "Highest conc with growth observed", "setting": "[2]", "result": 50, "unit": "g/L"},
      {"measurement": "Tolerance score (percent growth rate as compared to unchallenged cells)", "setting": "B. firmus", "result": "− (10-0%)"},
      {"measurement": "Tolerance score (percent growth rate as compared to unchallenged cells)", "setting": "C. glutamicum", "result": "+++ (100-90%)"},
      {"measurement": "Tolerance score (percent growth rate as compared to unchallenged cells)", "setting": "E. coli", "result": "− (10-0%)"}
    ]},
    {"molecule": "O=C(O)C(CO)CO", "note": "[alpha-hydroxymethyl 3-hydroxypropionic acid]", "values": [
      {"measurement": "Relative HMA levels", "setting": "[3]; pH 3, 30 C.", "result": 0.00},
      {"measurement": "Relative HMA levels", "setting": "[3]; pH 3, 70 C.", "result": 0.00},
      {"measurement": "Relative HMA levels", "setting": "[3]; pH 3, −20 C.", "result": 0.00},
      {"measurement": "Relative HMA levels", "setting": "[3]; pH 7, 30 C.", "result": 0.13},
      {"measurement": "Relative HMA levels", "setting": "[3]; pH 7, 70 C.", "result": 0.18},
      {"measurement": "Relative HMA levels", "setting": "[3]; pH 7, −20 C.", "result": 0.13},
      {"measurement": "Relative HMA levels", "setting": "[3]; pH 10, 30 C.", "result": 1.18},
      {"measurement": "Relative HMA levels", "setting": "[3]; pH 10, 70 C.", "result": 1.00},
      {"measurement": "Relative HMA levels", "setting": "[3]; pH 10, −20 C.", "result": 0.81},
      {"measurement": "Tolerated concentration", "setting": "E coli", "result": "at least 60 g/L"},
      {"measurement": "Tolerated concentration", "setting": "S. cerevisiae", "result": "at least 60 g/L"},
      {"measurement": "Tolerated concentration", "setting": "Kluyveromyces marxianus", "result": "at least 60 g/L"}
    ]},
    {"molecule": "acnA: E coli aconitase acnA, endogenous dehydratase, GenBank CAA42834 (protein, UniProt P25516 2-891, looked up) Aconitate hydratase A: SSTLREASKDTLQAKDKTYHYYSLPLAAKSLGDITRLPKSLKVLLENLLRWQDGNSVTEEDIHALAGWLKNAHADREIAYRPARVLMQDFTGVPAVVDLAAMREAVKRLGGDTAKVNPLSPVDLVIDHSVTVDRFGDDEAFEENVRLEMERNHERYVFLKWGKQAFSRFSVVPPGTGICHQVNLEYLGKAVWSELQDGEWIAYPDTLVGTDSHTTMINGLGVLGWGVGGIEAEAAMLGQPVSMLIPDVVGFKLTGKLREGITATDLVLTVTQMLRKHGVVGKFVEFYGDGLDSLPLADRATIANMSPEYGATCGFFPIDAVTLDYMRLSGRSEDQVELVEKYAKAQGMWRNPGDEPIFTSTLELDMNDVEASLAGPKRPQDRVALPDVPKAFAASNELEVNATHKDRQPVDYVMNGHQYQLPDGAVVIAAITSCTNTSNPSVLMAAGLLAKKAVTLGLKRQPWVKASLAPGSKVVSDYLAKAKLTPYLDELGFNLVGYGCTTCIGNSGPLPDPIETAIKKSDLTVGAVLSGNRNFEGRIHPLVKTNWLASPPLVVAYALAGNMNINLASEPIGHDRKGDPVYLKDIWPSAQEIARAVEQVSTEMFRKEYAEVFEGTAEWKGINVTRSDTYGWQEDSTYIRLSPFFDEMQATPAPVEDIHGARILAMLGDSVTTDHISPAGSIKPDSPAGRYLQGRGVERKDFNSYGSRRGNHEVMMRGTFANIRIRNEMVPGVEGGMTRHLPDSDVVSIYDAAMRYKQEQTPLAVIAGKEYGSGSSRDWAAKGPRLLGIRVVIAESFERIHRSNLIGMGILPLEFPQGVTRKTLGLTGEEKIDIGDLQNLQPGATVPVTLTRADGSQEVVPCRCRIDTATELTYYQNDGILHYVIRNMLK", "values": [
      {"measurement": "Formation of ITT dehydration product", "setting": "[4]", "result": "capable of producing the observed dehydration product"}
    ]}
  ]
}
